Laboratory results reported in patent publication US20220409643A1, “ROR Gamma T Inhibitors and Topical Uses Thereof” (Dermira, inc., priority 2019, published 2022).

Tests used:
[1] = system: Th17 associated genes; test: expression of Th17 associated genes in skin by real-time quantitative reverse transcription PCR; assay type: cell-based; conditions: skin harvested 24 hours after induction of inflammation
Description: Studies were carried out to determine the effect of two RORγt inhibitors of the present disclosure (i.e., Compound 1 and Compound 2, prepared in formulation as described in Example 1) on Th17 associated genes. Skin was harvested from subjects 24 hours after induction of inflammation. The RNA from the samples were isolated, and expression of the genes were quantified through real-time quantitative reverse transcription PCR. Clobetasol was used as a positive control.

[2] = system: imiquimod (IMQ)-induced psoriasis in mice; test: IMQ-induced psoriasis in mice, topical treatment; assay type: in vivo; conditions: 0.05% topical clobetasol cream, 10% body surface area
Excerpt: Topical application of imiquimod (IMQ), a TLR7/8 ligand and potent immune activator, is applied to the shaved backs and ears of mice to induce psoriasis. Information on the murine model of IMQ-induced psoriasis can be found at van der Fits L, Mourits S, Voerman JS, Kant M, Boon L, Laman JD, et al. Imiquimod-induced psoriasis-like skin inflammation in mice is mediated via the IL-23/IL-17 axis. J Immunol. 2009; 182:5836-45, which is hereby incorporated by reference in its entirety. Following administration of IMQ, mice ears and skin are observed for erythema, occurrence of scales and thickness after a period of six days. One group of mice were administered 0.05% topical clobetasol cream (10% body surface area), a potent topical steroid, as a positive control, and one group of mice received topical vehicle lacking Compoun 1 (10% body surface area), and one group was administered Compound 1 (3% formulation)(10% body surface area).
The mice were evaluated for erythema, presence of scales, thickness of ear tissue and body weight following administration of the treatments described above. Erythema and scales are determined by comparing the mice to a reference for color and severity of scaling.

[3] = system: IL17A; test: skin Resident Immune Cell Assay (sRICA), Th17 model, IL17A protein in media; assay type: cell-based; conditions: 100 uM solution in 1% DMSO/OD applied topically to human skin, media collected 24 hours after Th17 activation
Procedure, shortened: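 Human surgical skin, dermatomed to 750μm, 8 mm biopsies cultured air-liquid in transwells; RORγt inhibitors applied topically at 100 uM in 1% DMSO/OD, up to 24 h before Th17 activation by cytokine/antibody cocktail. IL17A measured in media 24 h post-activation by SiMoA, expressed as % of activated untreated skin.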

SMILES | inhibition at 100 µM ([3]; Homo sapiens, 24 h) [%] | other results
C[C@H]1C[C@H]2[C@@H]3CCC4=CC(=O)C=C[C@]4(C)[C@@]3(F)[C@@H](O)C[C@]2(C)[C@@]1(O)C(=O)CCl [Clobetasol] |  | CCL-20 gene expression [1]: 10% reduction; FoxP3 gene expression [1]: 6-fold increase; IL-17A gene expression [1]: 68% reduction; IL-19 gene expression [1]: 53% reduction; IL-36γ gene expression [1]: 60% reduction; S100A7 gene expression [1]: 62% reduction; SerapinB gene expression [1]: 65% reduction; TNFα gene expression [1]: 25% reduction; Body weight change / systemic toxicity [2]: significant weight loss
COCc1ccc([C@@H](NC(=O)C2CCN(C(C)=O)CC2)C(=O)Nc2ccc([Si](C)(C)C)c(F)c2)cc1 [1-acetyl-N-((1R)-2-((3-fluoro-4-(trimethylsilyl)phenyl)amino)-1-(4-(methoxymethyl)phenyl)-2-oxoethyl)piperidine-4-carboxamide] | 77.5 | 
CC[Si](C)(C)c1c(F)cc(NC(=O)[C@H]2c3ccc(COC)nc3CCN2C(=O)c2cc(O)no2)cc1F [(5R)-N-(4-(ethyl(dimethyl)silyl)-3,5-difluorophenyl)-6-((3-hydroxy-1,2-oxazol-5-yl)carbonyl)-2-(methoxymethyl)-5,6,7,8-tetrahydro-1,6-naphthyridine-5-carboxamide] | 48.5 | 
CCOc1ccc2c(c1)CCN(C(=O)Cc1cc(O)no1)[C@H]2C(=O)Nc1cc(F)c2c(c1)CCC2(C)C [(1R)-6-ethoxy-N-(7-fluoro-1,1-dimethyl-2,3-dihydro-1H-inden-5-yl)-2-((3-hydroxy-1,2-oxazol-5-yl)acetyl)-1,2,3,4-tetrahydroisoquinoline-1-carboxamide] |  | inhibition at 100 µM [3]: 67.9%
COCc1ccc([C@@H](NC(=O)Cn2nc(C)ccc2=O)C(=O)Nc2cc(F)c([Si](C)(C)C)c(F)c2)cc1 [(2R)-N-(3,5-difluoro-4-(trimethylsilyl)phenyl)-2-(4-(methoxymethyl)phenyl)-2-(((3-methyl-6-oxopyridazin-1(6H)-yl)acetyl)amino)acetamide] | 38.7 | 
COc1ccc2c(n1)CCN(C(=O)Cc1cc(O)no1)[C@H]2C(=O)Nc1cc(F)c([Si](C)(C)C)c(F)c1 [(5R)-N-(3,5-difluoro-4-(trimethylsilyl)phenyl)-6-((3-hydroxy-1,2-oxazol-5-yl)acetyl)-2-methoxy-5,6,7,8-tetrahydro-1,6-naphthyridine-5-carboxamide] | 49.4 | 
COc1ccc2c(n1)CCN(C(=O)Cc1cc(O)no1)[C@H]2C(=O)Nc1ccc([Si](C)(C)C)c(F)c1 [(5R)-N-(3-fluoro-4-(trimethylsilyl)phenyl)-6-((3-hydroxy-1,2-oxazol-5-yl)acetyl)-2-methoxy-5,6,7,8-tetrahydro-1,6-naphthyridine-5-carboxamide] | 22.2 | 
CN(C(=O)c1cc(O)no1)C(C(=O)Nc1cc(F)c([Si](C)(C)C)c(F)c1)C1CCOCC1 (stereo not shown) [N-(2-((3,5-difluoro-4-(trimethylsilyl)phenyl)amino)-2-oxo-1-(tetrahydro-2H-pyran-4-yl)ethyl)-3-hydroxy-N-methyl-1,2-oxazole-5-carboxamide] | 31.7 | 
COc1ccc([C@@H](NC(=O)c2cc(O)no2)C(=O)Nc2ccc([Si](C)(C)C)c(F)c2)cc1 | 55.3 | 
COCc1ccc2c(c1)CCN(C(=O)CCCC(=O)O)[C@H]2C(=O)Nc1ccc([Si](C)(C)C)c(F)c1 [5-((1R)-1-((3-fluoro-4-(trimethylsilyl)phenyl)carbamoyl)-6-(methoxymethyl)-3,4-dihydroisoquinolin-2(1H)-yl)-5-oxopentanoic acid] | 51.1 | 
COCC(C)(C)c1c(F)cc(NC(=O)[C@H]2c3ccc(OC)cc3CCN2C(=O)c2cc(O)no2)cc1F [(1R)-N-(3,5-difluoro-4-(1-methoxy-2-methylpropan-2-yl)phenyl)-2-((3-hydroxy-1,2-oxazol-5-yl)carbonyl)-6-methoxy-1,2,3,4-tetrahydroisoquinoline-1-carboxamide] |  | inhibition at 100 µM [3]: 56.2%
COCc1ccc2c(c1)CCN(C(=O)Cc1cc(O)no1)[C@H]2C(=O)Nc1ccc([Si](C)(C)C)c(F)c1 [(1R)-N-(3-fluoro-4-(trimethylsilyl)phenyl)-2-((3-hydroxy-1,2-oxazol-5-yl)acetyl)-6-(methoxymethyl)-1,2,3,4-tetrahydroisoquinoline-1-carboxamide] | 69.9 | 
COc1ccc2c(c1)CCN(C(=O)CCCC(=O)O)[C@H]2C(=O)Nc1cc(F)c([Si](C)(C)C)c(F)c1 [5-((1R)-1-((3,5-difluoro-4-(trimethylsilyl)phenyl)carbamoyl)-6-methoxy-3,4-dihydroisoquinolin-2(1H)-yl)-5-oxopentanoic acid] | 76.6 | 
COCc1ccc2c(c1)CCN(C(=O)c1cc(O)no1)[C@H]2C(=O)Nc1ccc([Si](C)(C)C)c(F)c1 [(1R)-N-(3-fluoro-4-(trimethylsilyl)phenyl)-2-((3-hydroxy-1,2-oxazol-5-yl)carbonyl)-6-methoxymethyl-1,2,3,4-tetrahydroisoquinoline-1-carboxamide] | 62.2 | 
